Assay [1] concerns the target T1, rat brain monoamine oxidase-A (Rattus norvegicus, UniProt P21396).
T1 construct: appropriately diluted homogenates of rat brain or liver; from tissue; host or cells: rat brain or liver homogenate
T1 sequence (P21396 1-526): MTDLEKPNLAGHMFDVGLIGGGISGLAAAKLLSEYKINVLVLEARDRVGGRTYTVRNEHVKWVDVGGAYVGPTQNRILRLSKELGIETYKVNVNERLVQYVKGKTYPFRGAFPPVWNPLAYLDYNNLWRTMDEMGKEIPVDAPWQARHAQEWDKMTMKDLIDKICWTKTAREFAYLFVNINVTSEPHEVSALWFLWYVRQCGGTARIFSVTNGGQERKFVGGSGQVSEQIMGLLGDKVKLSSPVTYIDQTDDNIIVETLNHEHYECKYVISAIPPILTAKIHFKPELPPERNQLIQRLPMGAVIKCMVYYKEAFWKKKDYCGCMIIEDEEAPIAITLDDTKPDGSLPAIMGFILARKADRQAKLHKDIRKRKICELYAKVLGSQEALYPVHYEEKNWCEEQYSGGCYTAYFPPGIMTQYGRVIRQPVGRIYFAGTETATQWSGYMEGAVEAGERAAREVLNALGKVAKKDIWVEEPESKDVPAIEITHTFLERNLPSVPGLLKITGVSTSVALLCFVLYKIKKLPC
Description: Monoamine oxidase-A inhibiting activity in vitro (radiochemical, 5-hydroxytryptamine substrate, rat brain homogenate). Particulars: for inhibition at 100 µM: 1 × 10^-4 M; for inhibition at 10 µM: 1 × 10^-5 M; for inhibition at 1 µM: 1 × 10^-6 M; for inhibition at 0.1 µM: 1 × 10^-7 M; for inhibition at 0.01 µM: 1 × 10^-8 M. Type of assay: biochemical. How it is done:
Radiolabelled 5-hydroxytryptamine was used as the substrate for monoamine oxidase-A. Various concentrations of the compounds were incubated in appropriately diluted homogenates of rat brain or liver in a 0.2 M potassium phosphate buffer. Incubations proceeded at 37° C. for 10 minutes. Incubation was terminated by the addition of acid and the radiolabelled product (5-hydroxyindoleacetic acid) was extracted and quantified by liquid scintillation counting procedures. Incubations were done in triplicate and incubations containing phenelzine were included for comparison. The percent inhibition of monoamine oxidase-A activity compared to controls without the compounds of the present invention was calculated.

The subject of assay [2] is rat brain and liver monoamine oxidase-A. Description: Monoamine oxidase-A inhibiting activity ex vivo. Type of assay: in vivo. The procedure: Radiolabelled 5-hydroxytryptamine was used as a substrate for monoamine oxidase-A. The compounds of interest were either injected intraperitonealy in DMSO or administered by gavage in water for various periods. The animals were killed by decapitation and the brains and livers immediately removed and frozen until assayed for monoamine oxidase-A activity. Tissues were homogenized and appropriately diluted in buffer prior to incubation. Incubations proceeded at 37° C. for 10 minutes. Incubation was terminated by the addition of acid and the radiolabelled product (5-hydroxyindoleacetaldehyde and 5-hydroxyindoleacetic acid) was extracted and quantified by liquid scintillation counting procedures. Incubations were done in triplicate and incubations containing phenelzine were included for comparison. The percent inhibition of monoamine oxidase-A activity compared to controls containing no drug was calculated.
Values are the mean ± the standard error based on (n) determinations.
Oral doses were administered as 75 μmol/kg on day 1, 75 μmol/kg on
day 2 and the animals were killed 5 hours later.

For assay [3], the target named is T2, rat brain monoamine oxidase-B (Rattus norvegicus, UniProt P19643).
T2 construct: appropriately diluted homogenates of rat brain or liver; from tissue; host or cells: rat brain or liver homogenate
T2 sequence (P19643 1-520): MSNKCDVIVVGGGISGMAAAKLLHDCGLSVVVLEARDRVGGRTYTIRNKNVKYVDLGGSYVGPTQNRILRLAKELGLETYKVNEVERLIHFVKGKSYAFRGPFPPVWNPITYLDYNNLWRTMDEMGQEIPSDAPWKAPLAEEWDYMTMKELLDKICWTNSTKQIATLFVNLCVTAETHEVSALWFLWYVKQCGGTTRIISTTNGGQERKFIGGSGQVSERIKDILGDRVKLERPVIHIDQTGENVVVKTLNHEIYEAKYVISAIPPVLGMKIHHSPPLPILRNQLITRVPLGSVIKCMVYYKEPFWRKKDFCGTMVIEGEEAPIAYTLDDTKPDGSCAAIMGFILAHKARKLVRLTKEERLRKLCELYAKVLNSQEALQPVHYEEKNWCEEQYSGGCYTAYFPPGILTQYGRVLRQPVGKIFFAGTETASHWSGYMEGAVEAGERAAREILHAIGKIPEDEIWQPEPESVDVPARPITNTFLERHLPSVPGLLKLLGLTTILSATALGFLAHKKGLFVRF
Description: Monoamine oxidase-B inhibiting activity in vitro (radiochemical, β-phenylethylamine substrate, rat brain homogenate). Format: biochemical. The settings on record: for inhibition at 100 µM: 1 × 10^-4 M; for inhibition at 10 µM: 1 × 10^-5 M; for inhibition at 1 µM: 1 × 10^-6 M; for inhibition at 0.1 µM: 1 × 10^-7 M; for inhibition at 0.01 µM: 1 × 10^-8 M. How it is done:
Radiolabelled β-phenylethylamine was employed as a substrate for monoamine oxidase-B. Various concentrations of the compounds of interest were incubated in appropriately diluted homogenates of rat brain or liver in a 0.2 M potassium phosphate buffer. Incubations proceeded at 37° C. for 10 minutes. Incubation was terminated by the addition of acid and the radiolabelled product (phenylacetaldehyde and phenylacetic acid) was extracted and quantified by liquid scintillation counting procedures. Incubations were done in triplicate and incubations containing phenelzine were included for comparison. The percent inhibition of monoamine oxidase-B activity compared to controls containing no drug was calculated.

Assay [4] relates to valine, alanine and gamma-aminobutyric acid (GABA) concentrations in rat brain. Description: Brain valine, alanine and gamma-aminobutyric acid (GABA) concentrations. Type of assay: in vivo. Particulars: for GABA / Valine: 150 μmol/kg, 5 hr, ip; for GABA concentrations: doses as high as 150 μmol/kg; for GABA concentrations / elevation of alanine: in words. The procedure:
Effects of various doses of CVT-P040, CVT-P041 and phenelzine on the concentrations of some brain amino acids were evaluated by examining concentrations of gamma-aminobutyric acid (GABA) 5 hours after the injection of the drug. Briefly, rats were injected with CVT-P040 ([…]), vehicle, or phenelzine (150 μmol/kg) and killed 3 or 5 hours later. The brains were removed and divided in half. One half of the brain was frozen in isopentane on dry ice and retained for estimates of GABA concentrations. GABA and other amino acid concentrations were estimated using the method of Wong, J. T. F., Baker, G. B. and Coutts, R. T. (1990), A rapid, sensitive assay for γ-aminobutyric acid in brain using electron-capture gas chromatography, Res. Comm. Chem. Path. Pharmacol. 70: 115-122.

For assay [5] the test system is unchanged. The description is as above. Type of assay: in vivo. Particulars: for GABA / Valine: 2 × 75 μmol/kg per os.
[6] abbreviates: brain, 5.75 μmol/kg, 5 hr, i.p. in 10% DMSO.
Setting [7] is: brain, 150 μmol/kg, 5 hr, i.p. in 10% DMSO.
The mark [8] stands for this setting: brain, 2 × 75 μmol/kg per os (day 1 and day 2, killed 5 hours later).
Setting [9] is: liver, 5.75 μmol/kg, 5 hr, i.p. in 10% DMSO.
[10] abbreviates: liver, 2 × 75 μmol/kg per os (day 1 and day 2, killed 5 hours later).

This note sets out measurements from US6060516A, “N^1 -propargylhydrazines, N^2 -propargylhydrazines and their analogs for the treatment of depression, anxiety and neurodegeneration” (CV Technologies, Inc., priority 1998, dated 2000).

On to `C#CCN(N)CCc1ccccc1` [CVT-P040, N^1 -propargylphenelzine], for which the inhibition at 100 µM worked out at 99.5% in assay [1] and 99.7% in assay [3]. Besides, the inhibition at 10 µM was found to be 99.1% in assay [1] and 97.9% in assay [3]. For the same molecule, the inhibition at 1 µM in assay [1] amounted to 71.1%; in assay [3], 88.8%. The inhibition at 0.1 µM in assay [1] worked out at 20.6%; in assay [3] it was 59.8%. The inhibition at 0.01 µM was found to be 0.7% in assay [1] and 19.9% in assay [3]. Also, the “% Inhibition Monoamine Oxidase-A” value came out at 7.2 ± 5.1% in assay [2] (brain, 0.58 μmol/kg, 5 hr, i.p. in 10% DMSO); 9.1 ± 4.9% in assay [2] (setting [6]); 86.6 ± 6.7% in assay [2] (brain, 57.5 μmol/kg, 5 hr, i.p. in 10% DMSO); 96.7 ± 0.6% in assay [2] (setting [7]); 98.4 ± 0.1% in assay [2] (brain, 173 μmol/kg, 5 hr, i.p. in 10% DMSO); 96.9 ± 0.8% in assay [2] (setting [8]). Besides, the “% Inhibition Monoamine Oxidase-A” value in assay [2] (liver, 0.58 μmol/kg, 5 hr, i.p. in 10% DMSO) is recorded as -6.1 ± 4.4%; in assay [2] (setting [9]) it was 43.7 ± 5.4%; in assay [2] (liver, 57.5 μmol/kg, 5 hr, i.p. in 10% DMSO), 91.7 ± 2.3%; in assay [2] (liver, 173 μmol/kg, 5 hr, i.p. in 10% DMSO), 97.7 ± 0.3%; in assay [2] (setting [10]) it was 95.4 ± 0.7%. In addition, the GABA amounted to 270 ± 23 µg/g in assay [4] and 329 ± 43 µg/g in assay [5]. Also, the figures for the Valine in assay [4] and in assay [5] were 22.9 ± 1.4 µg/g and 25.4 ± 1.8 µg/g, respectively. For the same molecule, in assay [4], the GABA concentrations entry is “did not elevate GABA concentrations”. Further, the elevation of alanine entry in assay [4] is “elevation of alanine was not seen”.

Take `C#CCN(CCc1ccccc1)NC(C)=O` [CVT-P041, N^1 -propargyl-N^2 -acetylphenelzine]: in assay [1], the inhibition at 100 µM was 79.5%, the inhibition at 10 µM is 27.7%, the inhibition at 1 µM was found to be 4.2% and the inhibition at 0.1 µM was 1.8%. For the same molecule, the inhibition at 0.01 µM in assay [1] is 0.3%. In addition, the “% Inhibition Monoamine Oxidase-A” value in assay [2] (setting [7]) is on record as 98.4 ± 0.0%. In addition, the “% Inhibition Monoamine Oxidase-A” value in assay [2] (setting [8]) worked out at 92.9 ± 1.7%. Besides, in assay [2] (setting [10]), the “% Inhibition Monoamine Oxidase-A” value came out at 98.3 ± 0.2%. Besides, in assay [3], the inhibition at 100 µM is 92.7%, the inhibition at 10 µM was determined as 71.3%, the inhibition at 1 µM is 28.8% and the inhibition at 0.1 µM was found to be 6.2%. For the same molecule, the inhibition at 0.01 µM in assay [3] is -2%. In assay [4], the GABA is 253 ± 0 µg/g, the Valine was 20.6 ± 0.5 µg/g, the GABA concentrations entry was “did not elevate GABA concentrations” and the elevation of alanine result was “elevation of alanine was not seen”. Further, in assay [5], the GABA came to 300 ± 22 µg/g and the Valine was determined as 26.4 ± 1.4 µg/g.

For the molecule `NNCCc1ccccc1` [phenelzine, 1-(2-phenyl) ethylhydrazine, reference compound], the inhibition at 100 µM in assay [1] and in assay [3] was 100% each time. The inhibition at 10 µM in assay [1] and in assay [3] was 100% throughout. In addition, the inhibition at 1 µM in assay [1] is 98.9%; in assay [3], 90.1%. Moreover, the inhibition at 0.1 µM turned out to be 62.9% in assay [1] and 18.3% in assay [3]. In addition, the inhibition at 0.01 µM in assay [1] and in assay [3] was 6.9% throughout. In addition, the “% Inhibition Monoamine Oxidase-A” value in assay [2] (setting [6]) worked out at 9.1 ± 5.3%; in assay [2] (setting [7]), 97.2%; in assay [2] (setting [8]) it was 96.5 ± 1.2%; in assay [2] (setting [9]) it was 36.4 ± 5.3%; in assay [2] (setting [10]) it was 97.7 ± 0.3%. The GABA in assay [4] was found to be 773 ± 37 µg/g; in assay [5], 733 µg/g. Besides, the figures for the Valine in assay [4] and in assay [5] were 22.9 ± 0.4 µg/g and 24.3 ± 0.8 µg/g, respectively. The “elevation of alanine levels” value in assay [5] (phenelzine) is given as “about 4 fold”. The “brain GABA concentrations” value in assay [5] (phenelzine 150 pmol/kg (so in the source), in words) was “caused elevations in brain GABA concentrations”.

What is called inhibition is the drop in the measured response relative to a control, in per cent.
